Experimental data taken from patent US20240197700A1, “Methods and Compositions for Treating Lysosomal Storage Disorders” (Sanford Health, priority 2021, published 2024).
“Also recorded” adds a separate entry of the source. Each block holds one molecule with its values, some of them ahead of it.

Experiments:
[1] = test system: palmitoyl-protein thioesterase 1 (PPT1); assay: PPT1 enzyme activity in MEF lysates; type: cell-based, mouse; conditions: wild type, DIV7
Protocol: Wild type (WT) and mutant cells were treated with vehicle or AF38469 (40 nM). Cells were plated on day 0 and dosed with drug-containing media on DIV3 and DIV5. Cells were lysed, and protein quantification and enzyme activity assay were performed on DIV7. Data was analyzed with GraphPad Prism™. Two-way ANOVA. Mean±S.E.M. Tukey's multiple comparisons test. *p<0.05, **p<0.01, ***p<0.001, ****p<0.0001.

[2] = test system: Cln3^Δex7/8 mice; assay: Microglial activation (CD68) in brain of Cln3^Δex7/8 mice; type: in vivo, mouse; conditions: for microglial activation (CD68): VPM/VPL of the thalamus and somatosensory cortex
Protocol: (§1) FIG. 22(A-B). Short-term chronic treatment with semaglutide impacts glial activation in Cln3^Δex7/8 mice. Beginning at wean, wild type and Cln3^Δex7/8 mice were treated with vehicle or semaglutide 2.571 μg/mouse, 25.71 μg/mouse) through subcutaneous injections three times a week until sacrifice at 16 weeks. Upon sacrifice, a hemisphere of the brain was sectioned at 50 microns on a vibratome; DAB staining immunohistochemistry was then performed using anti-GFAP (Dako, Z0334; 1:5000), anti-CD68 (AbD Serotec, MCA1957; 1:2000), anti-rabbit biotinylated (Vector Labs, BA-1000 1:1000), and anti-rat (Vector Labs, BA-9400 1:1000). Sections were imaged and analyzed using an Aperio Digital Pathology Slide Scanner (AT2) and associated software. Images were extracted from S1BF of the somatosensory cortex, the CA3 of the hippocampus, and the VPM/VPL of the thalamus, key brain regions for Batten disease pathology. Percent area of immunoreactivity were quantified using a threshold analysis in ImageJ™. Statistical analyses were performed using GraphPad Prism™ (v8.4.3; San Diego, CA). […] Increasing concentrations of semaglutide and corresponding genotypes are shown along the x-axis. Nested one-way ANOVA. Mean±S.E.M. Sidak's multiple comparisons test. Compared to the wild type vehicle treated group #p<0.05, ##p<0.01, ###p<0.001, ####p<0.0001. Compared to mutant vehicle treated group *p<0.05, **p<0.01, ***p<0.001, ****p<0.0001.
(§2) Specific experimental details are included in figure legends. In general, after collection and preparation, MEFs and PNCs were dosed with vehicle or AF38469 (40 nM, 400 nM. or 4 μM) on DIV3 and DIV5. On DIV7, cells were treated with the following dyes: Hoechst 33342 (1:1000 dilution), LysoTrackerT™ Red DND-99 (1:10,000 dilution), fixed, and imaged. Mice were given vehicle or AF38469 (78.125 μg/ml, 3.125 μg/ml, 0.3125 μg/ml or 0.03125 μg/ml equating approximately to 250 μg/mouse/day, 10 μg/mouse/day, 1 μg/mouse/day, and […], respectively, given a mouse's daily water intake of approximately 3.2 ml per day) in drinking water beginning at wean. Body weight was measured bi-weekly, and a force actimeter test was performed on Cln2^R207X mice at 10 weeks of age. Body weight was measured every month for Cln3^Δex7/8 mice. At 11 and 16 weeks of age, respectively, Cln2^R207X and Cln3^Δex7/8 mice along with age matched wild type control mice were CO2 euthanized and intracardially perfused with PBS. Brains were collected and placed on a 1 mm sagittal brain block. Brains were sliced at the midline and 3 mm right of the midline. One hemisphere was fixed in 4% PFA and sectioned at 50 microns on a vibratome. Immunohistochemistry was performed on free-floating sections. For mitochondrial ATP synthase subunit C (SubC), glial fibrillary acidic protein (GFAP), and cluster of differentiation 68 (CD68) immunolabeling, primary antibodies included anti-SubC (Abcam, ab181243; 1:1000), anti-GFAP (Dako, Z0334; 1:5000), anti-CD68 (AbD Serotec, MCA1957; 1:2000), and secondary antibodies included anti-rabbit biotinylated (Vector Labs, BA-1000 1:1000) and anti-rat (Vector Labs, BA-9400 1:1000). Coverslips were mounted on slides using antifade-mounting media and were stored in the dark before imaging. Sections were imaged and analyzed using an Aperio Digital Pathology Slide Scanner (AT2) and associated software. Images were extracted from S1BF of the somatosensory cortex and the VPM/VPL of the thalamus, with multiple images taken of multiple tissues from each animal.
(§3) Short-term chronic treatment with AF38469 impacts glial activation in Cln3^Δex7/8 mice. Beginning at wean, wild type and Cln3^Δex7/8 mice were treated with vehicle (0.2408% DMSO) or AF38469 (0.03125 μg/ml, 0.3125 μg/ml, 3.125 μg/ml, 78.125 μg/ml) continuously through the drinking water continuing until sacrifice at 16 weeks. […]

[3] = test system: Cln3^Δex7/8 mice; assay: Astroglial activation (GFAP) in brain of Cln3^Δex7/8 mice; type: in vivo, mouse
Protocol: as §1, §2, §3

[4] = test system: NCL MEFs; assay: Autofluorescent storage material (ASM) in Batten disease mouse embryonic fibroblasts; type: cell-based
Protocol: as §2
• An increase in percent area or total area of positive autofluorescent storage material (ASM) signal in untreated NCL MEFs or PNCs relative to age-matched, wild type MEFs or PNCs is considered an increase in the accumulation of autofluorescent storage material, reflecting disease-related lysosomal dysfunction. • A decrease in percent area or total area of positive autofluorescent storage material signal in AF38469 treated MEFs and PNCs relative to age-matched, vehicle treated MEFs and PNCs is considered a reduction in the accumulation of autofluorescent storage material and thus a decrease in disease-related lysosomal dysfunction. • LysoTracker™ is an acidophilic dye that labels lysosomes and accumulation increases with an increase in lysosome size or number. Cell and mouse models of lysosomal storage disorders often have increased accumulation of lysosomes and therefore have a stronger LysoTracker™ signal. […]

Molecule: Cc1cccc(NC(=O)c2ccc(C(F)(F)F)cc2C(=O)O)n1 [AF38469, 2-((6-methylpyridin-2-yl)carbamoyl)-5-(trifluoromethyl)benzoic acid]
PPT1 enzyme activity ([1]; AF38469 40 nM, Cln2^R207X, Cln3^Δex7/8, Cln6^nclf, Cln11^−/− MEFs): increased the overall levels of activity; also recorded: significantly increased
microglial activation (CD68) ([2]; AF38469 higher doses 3.125 μg/ml, 78.125 μg/ml): increased or had no impact; also recorded: had no impact
microglial activation (CD68) ([2]; AF38469 lower doses 0.03125 μg/ml, 0.3125 μg/ml): significantly and potently decreased
astroglial activation (GFAP) ([3]; 0.03125 μg/ml, 0.3125 μg/ml, VPM/VPL of the thalamus): significantly and potently decreased
astroglial activation (GFAP) ([3]; 0.03125 μg/ml, somatosensory cortex): significantly decreased
astroglial activation (GFAP) ([3]; AF38469 higher doses 3.125 μg/ml, 78.125 μg/ml, VPM/VPL of the thalamus and somatosensory cortex): increased or had no impact; also recorded: had no impact
GFAP reactivity ([3]; lower doses, somatosensory cortex and the thalamus, summary statement): significantly decreased
accumulation of autofluorescent storage material (ASM) ([4]; 40 nM, 400 nM, 4 μM, Cln1^R151X, Cln2^R207X, Cln3^Δex7/8, Cln6^nclf, Cln8^mnd MEFs, DIV7): significantly reduced
accumulation of autofluorescent storage material (ASM) ([4]; Cln11^−/− MEFs, DIV7): did not have an impact

PPT1 enzyme activity ([1]; LM11A-31 100 nM, Cln2^R207X and Cln3^Δex7/8 MEFs): significantly increased
Molecule: CC[C@H](C)[C@H](N)C(=O)NCCN1CCOCC1 [LM11A-31, N-[2-(morpholin-4-yl)ethyl]-L-isoleucinamide]
microglial activation (CD68) ([2]; LM11A-31 0.6 mg/mL): had no impact
levels of CD68 ([2]; LM11A-31 0.6 mg/mL, thalamus): trends towards decreased levels
astroglial activation (GFAP) ([3]; LM11A-31 0.6 mg/mL, VPM/VPL of the thalamus and somatosensory cortex): decreasing trend; also recorded: trends towards decreased levels; also recorded: had no significant decrease
accumulation of autofluorescent storage material (ASM) ([4]; LM11A-31 100 nM, 1 μM, 10 μM, Cln1^R151X, Cln6^nclf, Cln8^mnd MEFs, DIV7): did not reduce
accumulation of autofluorescent storage material (ASM) ([4]; LM11A-31 (mid to high doses), Cln2^R207X and Cln3^Δex4/8 (so in the source) MEFs): trended towards reductions; also recorded: decreasing trend

PPT1 enzyme activity ([1]; semaglutide 100 nM, Cln2^R207X and Cln3^Δex7/8 MEFs): significantly increased
Molecule: semaglutide
accumulation of microgliosis (CD68) ([2]; semaglutide 2.571 μg/mouse, 25.71 μg/mouse s.c., S1BF, CA3, VPM/VPL, vs vehicle Cln3^Δex7/8): had no significant effect
CD68 immunoreactivity ([2]; semaglutide lower dose 2.571 μg/mouse s.c., S1BF, CA3, VPM/VPL, relative to wild type): reduced CD68 immunoreactivity to levels indistinguishable from wild type; also recorded: restored CD68 immunoreactivity to wild type levels
astrocytosis (GFAP) ([3]; semaglutide 2.571 μg/mouse, 25.71 μg/mouse s.c., S1BF, CA3, VPM/VPL): had no significant effect
accumulation of autofluorescent storage material (ASM) ([4]; semaglutide 10 nM, 100 nM, 1 μM, Cln1^R151X, Cln2^R207X, Cln3^Δex7/8, Cln6^nclf, Cln8^mnd MEFs): had no impact
